In BindingDB's records for doi:10.1111/cbdd.12379 (Quaid-I-Azam University, 2015):

Target: Urease [D459Y,K653P] (Canavalia ensiformis, UniProt P07374, D459Y/K653P)
Assay: In vitro Urease Inhibition Assay
Conditions: pH 8.2
Method: Urease inhibition activity was determined by indophenol method. […] Initially, urease enzyme and the test compound were incubated in the assay buffer for 30 minutes (in a linear reaction range) at 37 °C, 40 µL of phenol and alkali reagents were added to stop the reaction. […] All the assays were performed in triplicate.

Chain of Urease [D459Y,K653P] (P07374 whole entry D459Y/K653P): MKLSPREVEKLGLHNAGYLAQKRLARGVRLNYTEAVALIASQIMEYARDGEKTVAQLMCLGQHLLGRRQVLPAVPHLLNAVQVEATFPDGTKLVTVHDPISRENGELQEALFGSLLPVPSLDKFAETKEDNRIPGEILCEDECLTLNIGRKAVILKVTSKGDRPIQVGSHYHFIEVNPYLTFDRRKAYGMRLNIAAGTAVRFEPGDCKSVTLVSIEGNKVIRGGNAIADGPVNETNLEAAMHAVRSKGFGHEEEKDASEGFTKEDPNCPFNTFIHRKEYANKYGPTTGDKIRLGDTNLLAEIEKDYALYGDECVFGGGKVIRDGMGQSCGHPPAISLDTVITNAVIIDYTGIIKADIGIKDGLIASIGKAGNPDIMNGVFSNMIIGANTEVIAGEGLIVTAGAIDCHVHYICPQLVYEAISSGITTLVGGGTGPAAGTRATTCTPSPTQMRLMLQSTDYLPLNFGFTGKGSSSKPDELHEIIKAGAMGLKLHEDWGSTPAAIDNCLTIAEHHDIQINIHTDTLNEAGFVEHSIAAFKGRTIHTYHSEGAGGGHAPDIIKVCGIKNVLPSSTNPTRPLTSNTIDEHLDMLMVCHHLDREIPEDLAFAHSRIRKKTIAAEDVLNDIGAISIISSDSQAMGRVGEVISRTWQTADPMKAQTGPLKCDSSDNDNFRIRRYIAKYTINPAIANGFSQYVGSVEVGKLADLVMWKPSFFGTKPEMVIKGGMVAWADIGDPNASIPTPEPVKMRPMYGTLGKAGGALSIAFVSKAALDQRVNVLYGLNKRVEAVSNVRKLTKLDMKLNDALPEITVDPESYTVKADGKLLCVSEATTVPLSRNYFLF

NC(=S)N/N=C/Cc1cccnc1 [[(E)-[2-(pyridin-3-yl)ethylidene]amino]thiourea (3b)]
IC50: 2.41 µM

NC(=S)N/N=C/Cc1ccco1 [[(E)-[2-(furan-2-yl)ethylidene]amino]thiourea (3f)]
IC50: 0.58 µM

NC(=S)N/N=C/Cc1ccccn1 [[(E)-[2-(pyridin-2-yl)ethylidene]amino]thiourea (3a)]
IC50: 2.65 µM

NC(=S)N/N=C/Cc1ccc(OCc2ccccc2)cc1 [[(E)-{2-[4-(benzyloxy)phenyl]ethylidene}amino]thiourea (3k)]
IC50: 3.64 µM

NC(=S)N/N=C/Cc1ccc2ccc3cccc4ccc1c2c34 [[(E)-[2-(pyren-1-yl)ethylidene]amino]thiourea (3m)]
IC50: 4.84 µM

COc1cc(C/C=N/NC(N)=S)ccc1OCc1ccccc1 [[(E)-{2-[4-(benzyloxy)-3-methoxyphenyl]ethylidene}amino]thiourea (3l)]
IC50: 75.1 µM

NC(=S)N/N=C/Cc1ccccc1 [[(E)-(2-phenylethylidene)amino]thiourea (3j)]
IC50: 4.24 µM

Cc1ccc(C/C=N/NC(N)=S)o1 [[(E)-[2-(5-methylfuran-2-yl)ethylidene]amino]thiourea (3g)]
IC50: 3.23 µM
